The structures appear in SMILES notation.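 A five-concentration, 48-hour dose response in 96-well plates underlies each endpoint, interpolated linearly between surrounding concentrations. TGI: total growth inhibition.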

Among the test systems are ACHN renal; HCT-15 colon; SNB-19 CNS; NCI-H460 lung; UACC-62 melanoma; NCI-H23 lung; HCT-116 colon; RPMI-8226 leukemia; M14 melanoma; HOP-92 NSCLC; KM12 colon.
Assay in all cases: NCI anticancer screen, dose series, 48 h

In the case of `COC(=O)[C@@]12CC3CN(Cc4c1[nH]c1ccccc41)C2CC3=O`, the TGI in the assay on ACHN renal, in the assay on HCT-15 colon, with SNB-19 CNS, in the assay on NCI-H460 lung, in the assay on UACC-62 melanoma and with NCI-H23 lung was more than 100 µM throughout. Further, the TGI in the assay with HCT-116 colon, with RPMI-8226 leukemia, in the assay on M14 melanoma, with HOP-92 NSCLC and in the assay on KM12 colon was more than 100 µM in each case.
In the case of `O=C1CCCc2ccc3c(c21)CC1(Cc2cc4c(cc2C1)CCCC4)C3`, the TGI in the assay with ACHN renal was 30 µM; in the assay on HCT-15 colon, 61.3 µM; in the assay on SNB-19 CNS, 91.7 µM; in the assay with NCI-H460 lung it was 74.5 µM; in the assay on UACC-62 melanoma, 49.2 µM; with NCI-H23 lung, 49 µM. For the same compound, the TGI with HCT-116 colon was determined as 34.6 µM; with RPMI-8226 leukemia, 35.5 µM; in the assay with M14 melanoma, 33.2 µM; with HOP-92 NSCLC, 28 µM; in the assay on KM12 colon, 66.3 µM.
For the compound `CC(C)=CCC[C@@H](C)c1c(O)c(O)c(C)c2nc3ccccc3nc12`, the TGI was 5.64 µM in the assay with ACHN renal; 15 µM with HCT-15 colon; 15.5 µM with SNB-19 CNS; 32.4 µM in the assay with NCI-H460 lung; 6.72 µM with UACC-62 melanoma; 8.61 µM in the assay with NCI-H23 lung. Further, the TGI with HCT-116 colon is 12.2 µM; in the assay on RPMI-8226 leukemia, more than 20.2 µM; with M14 melanoma, 12.9 µM; in the assay with HOP-92 NSCLC, 5.11 µM; in the assay on KM12 colon, 13.2 µM.
For the compound `CN(CCN(C)Cc1ccc(Cl)c(Cl)c1)CCN1CCCC1`, the TGI in the assay with ACHN renal is more than 100 µM; in the assay on HCT-15 colon it was more than 100 µM; with SNB-19 CNS, more than 100 µM; in the assay with NCI-H460 lung it was more than 100 µM; with UACC-62 melanoma, 7.47 µM; in the assay with NCI-H23 lung, more than 100 µM. The TGI in the assay with HCT-116 colon was more than 57.8 µM; in the assay with RPMI-8226 leukemia, 32.4 µM; in the assay with M14 melanoma, more than 54.4 µM; in the assay on HOP-92 NSCLC, 82.1 µM; with KM12 colon it was more than 100 µM.
On to `CCCc1c(OC)c(O)c2c(=O)cc(OC)c3c4c(OC)cc(=O)c5c(O)c(OC)c(CCC)c(c1c23)c54`, for which the TGI with ACHN renal was 17 µM; in the assay with HCT-15 colon, 22.9 µM; in the assay on SNB-19 CNS it was 16.8 µM; in the assay on NCI-H460 lung it was 18.1 µM; in the assay with UACC-62 melanoma, 59.9 µM; in the assay with NCI-H23 lung, 26.6 µM. In addition, the TGI in the assay on HCT-116 colon is 13.2 µM; in the assay on RPMI-8226 leukemia it was more than 100 µM; in the assay with M14 melanoma, 20.4 µM; in the assay with HOP-92 NSCLC, 37.4 µM; with KM12 colon, 53.7 µM.
For the compound `O=c1[nH]c(=O)n(COCCO)cc1-c1ccccc1`, the TGI in the assay with ACHN renal, in the assay with HCT-15 colon, in the assay with SNB-19 CNS, in the assay with NCI-H460 lung, with UACC-62 melanoma and in the assay with NCI-H23 lung was more than 100 µM in each case. Further, the TGI with HCT-116 colon, with RPMI-8226 leukemia, in the assay on M14 melanoma, in the assay with HOP-92 NSCLC and in the assay on KM12 colon was more than 100 µM throughout.
Regarding `O=C(O)c1cc(/C=C/c2ccc(O)c(O)c2)ccc1O`, the TGI with ACHN renal, with HCT-15 colon, in the assay with SNB-19 CNS, in the assay on NCI-H460 lung, in the assay with UACC-62 melanoma and in the assay on NCI-H23 lung was more than 100 µM each time. The TGI with HCT-116 colon, with RPMI-8226 leukemia, with M14 melanoma, in the assay with HOP-92 NSCLC and in the assay with KM12 colon was more than 100 µM throughout.
`O=C(O)C(C1NCCS1)N1Cc2ccccc2C1` (configuration not stated): the TGI with ACHN renal, in the assay with HCT-15 colon, in the assay on SNB-19 CNS, in the assay on NCI-H460 lung, with UACC-62 melanoma and with NCI-H23 lung was more than 100 µM throughout. Also, the TGI in the assay on HCT-116 colon, in the assay on RPMI-8226 leukemia, in the assay on M14 melanoma, in the assay on HOP-92 NSCLC and in the assay on KM12 colon was more than 100 µM in each case.
As for `CS(=O)(=O)c1ccc(C2=C(c3ccccc3)C(=O)OC2)cc1`, the TGI in the assay on ACHN renal, in the assay on HCT-15 colon, with SNB-19 CNS, with NCI-H460 lung, in the assay on UACC-62 melanoma and in the assay on NCI-H23 lung was more than 100 µM each time. The TGI in the assay with HCT-116 colon, in the assay on RPMI-8226 leukemia, with M14 melanoma, with HOP-92 NSCLC and with KM12 colon was more than 100 µM each time.
For the compound `CCOC(=O)C(NC(=O)Nc1ccccc1)(Nc1cccc(Cl)c1)C(F)(F)F` (configuration not stated), the TGI in the assay with ACHN renal, in the assay on HCT-15 colon, in the assay with SNB-19 CNS, in the assay on NCI-H460 lung, in the assay with UACC-62 melanoma and with NCI-H23 lung was more than 100 µM in each case. The TGI in the assay on HCT-116 colon is more than 100 µM; with RPMI-8226 leukemia, more than 100 µM; in the assay with M14 melanoma, more than 100 µM; with HOP-92 NSCLC, 94.6 µM; in the assay with KM12 colon it was more than 100 µM.
Consider `O=C(CSCC(=O)N/N=C/c1ccc(F)cc1)N/N=C/c1ccc(F)cc1`, for which the TGI in the assay with ACHN renal, with HCT-15 colon, in the assay on SNB-19 CNS, in the assay on NCI-H460 lung, in the assay with UACC-62 melanoma and with NCI-H23 lung was more than 100 µM in each case. In addition, the TGI in the assay with HCT-116 colon, in the assay on RPMI-8226 leukemia, in the assay on M14 melanoma, with HOP-92 NSCLC and in the assay with KM12 colon was more than 100 µM each time.
As to `CC1CN=C(c2ccc3c(c2)Cc2cc(C4=NCC(C)N4)ccc2-3)N1` (configuration not stated), the TGI was more than 100 µM in the assay on ACHN renal; more than 100 µM in the assay on HCT-15 colon; more than 100 µM in the assay on SNB-19 CNS; 86.8 µM in the assay with NCI-H460 lung; 99 µM in the assay with UACC-62 melanoma; more than 100 µM in the assay with NCI-H23 lung. The TGI is more than 100 µM in the assay with HCT-116 colon; 98.7 µM with RPMI-8226 leukemia; more than 100 µM with M14 melanoma; more than 100 µM in the assay on HOP-92 NSCLC; 56 µM in the assay on KM12 colon.

The values above are taken from PubChem BioAssay (NCI).
